Experimental data: patent US20220402925A1, “COMPOUNDS AND METHODS FOR THE TREATMENT OF CYSTIC FIBROSIS” (Flatley Discovery Lab, LLC, priority 2019, published 2022)

molecular target: T1, F508del CFTR (Homo sapiens, UniProt P13569, DEL508-508); assay: Equivalent current assay in primary CF airway epithelial cells (Corrector Activity, NAUC normalized to 3 μM VX809); type: cell-based; conditions: NAUC as % of positive control (VX-809)
T1 construct: Primary CF airway epithelial cells were obtained from the UNC Cystic Fibrosis Tissue Procurement and Cell Culture Core; host or cells: primary CF airway epithelial cells
T1 sequence (P13569 with tags, fused parts or gaps DEL508-508): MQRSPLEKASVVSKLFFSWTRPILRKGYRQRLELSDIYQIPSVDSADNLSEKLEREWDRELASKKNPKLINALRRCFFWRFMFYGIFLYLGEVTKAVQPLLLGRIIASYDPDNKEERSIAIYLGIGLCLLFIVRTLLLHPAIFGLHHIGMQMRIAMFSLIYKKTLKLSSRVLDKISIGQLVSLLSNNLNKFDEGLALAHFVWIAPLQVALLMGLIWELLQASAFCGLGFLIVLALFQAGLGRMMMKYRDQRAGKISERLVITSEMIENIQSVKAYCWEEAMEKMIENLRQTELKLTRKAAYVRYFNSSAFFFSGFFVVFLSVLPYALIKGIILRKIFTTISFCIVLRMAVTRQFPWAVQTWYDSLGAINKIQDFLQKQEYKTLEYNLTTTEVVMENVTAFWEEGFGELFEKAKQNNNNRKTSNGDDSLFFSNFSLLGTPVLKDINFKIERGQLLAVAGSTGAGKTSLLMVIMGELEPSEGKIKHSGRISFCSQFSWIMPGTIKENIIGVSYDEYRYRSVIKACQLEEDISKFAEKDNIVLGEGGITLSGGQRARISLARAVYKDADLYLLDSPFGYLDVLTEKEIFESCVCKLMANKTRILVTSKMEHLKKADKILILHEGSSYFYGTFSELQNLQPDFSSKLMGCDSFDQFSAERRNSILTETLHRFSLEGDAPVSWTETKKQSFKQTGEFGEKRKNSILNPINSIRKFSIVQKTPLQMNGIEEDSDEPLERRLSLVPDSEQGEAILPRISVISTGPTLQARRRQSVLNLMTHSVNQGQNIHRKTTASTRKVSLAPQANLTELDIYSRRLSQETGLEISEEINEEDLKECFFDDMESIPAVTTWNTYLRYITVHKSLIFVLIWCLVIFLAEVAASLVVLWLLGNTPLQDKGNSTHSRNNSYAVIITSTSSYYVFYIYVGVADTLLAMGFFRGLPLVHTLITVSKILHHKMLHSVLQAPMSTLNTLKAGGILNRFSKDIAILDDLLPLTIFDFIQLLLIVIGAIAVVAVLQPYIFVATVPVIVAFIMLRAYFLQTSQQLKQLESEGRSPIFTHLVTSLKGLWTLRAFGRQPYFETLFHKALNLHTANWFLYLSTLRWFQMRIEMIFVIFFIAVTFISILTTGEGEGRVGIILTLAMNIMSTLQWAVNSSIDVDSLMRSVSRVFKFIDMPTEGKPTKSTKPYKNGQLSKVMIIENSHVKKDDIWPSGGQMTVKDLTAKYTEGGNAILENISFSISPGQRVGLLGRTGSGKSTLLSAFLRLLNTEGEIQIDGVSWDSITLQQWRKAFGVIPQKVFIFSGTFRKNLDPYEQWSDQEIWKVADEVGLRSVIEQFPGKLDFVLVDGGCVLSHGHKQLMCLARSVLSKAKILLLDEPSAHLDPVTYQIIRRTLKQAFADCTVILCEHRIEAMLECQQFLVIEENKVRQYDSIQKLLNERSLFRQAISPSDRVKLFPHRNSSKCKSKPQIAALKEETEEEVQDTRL
Summary of the method: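 Readout is NAUC: current area from forskolin/potentiator addition until CFTR-172, minus vehicle, relative to 3 μM VX809 (=1.0). Cells were primary CF epithelia at air-liquid interface ≥4 weeks, given basolateral compound for 24 h at 37° C; median of n≥4 replicates, sigmoid fit with nH fixed at 1.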

Corr Activity (NAUC)	SMILES
+++ (NAUC>70% of positive control)	CCN(C(=O)Cn1nc(-c2cccc(C#N)c2)c2[nH]cnc2c1=O)c1ccc2c(c1)OC(F)(F)O2 [Example 24]
+++ (NAUC>70% of positive control)	CCN(C(=O)Cn1nc(-c2cccc(Cl)c2)c2[nH]ccc2c1=O)c1ccc2c(c1)OC(F)(F)O2 [Example 502]
+++ (NAUC>70% of positive control)	Cc1cc2c(=O)n(CC(=O)N(C)c3ccc4c(c3)OC(F)(F)O4)nc(-c3cc(F)cc(F)c3)c2o1 [Example 71]
++ (NAUC 70-40% of positive control)	CC(C)COc1cc(F)cc(-c2nn(CC(=O)N(c3ccc4c(c3)OC(F)(F)O4)C3CC3)c(=O)c3nc[nH]c23)c1 [Example 384]
+ (NAUC<40% of positive control)	CN1C(=O)Cc2ccc(-c3nn(CC(=O)N(c4ccc5c(c4)OC(F)(F)O5)C4CC4)c(=O)c4nc[nH]c34)cc21 [Example 432]
+++ (NAUC>70% of positive control)	CCN(C(=O)Cn1nc(-c2cc(F)cc(Cl)c2)c2[nH]cnc2c1=O)c1ccc2c(c1)OC(F)(F)O2 [Example 255]
++ (NAUC 70-40% of positive control)	Cc1nc2ccc(N(C)C(=O)Cn3nc(-c4cccc(C#N)c4)c4oc(C5CCC5)cc4c3=O)cc2o1 [Example 232]
+++ (NAUC>70% of positive control)	N#Cc1cccc(-c2nn(CC(=O)N(c3ccc4c(c3)OC(F)(F)O4)C3CC3)c(=O)c3nc[nH]c23)c1 [Example 372]
+++ (NAUC>70% of positive control)	CCN(C(=O)Cn1nc(-c2cccc(C#N)c2)c2[nH]ccc2c1=O)c1ccc2c(c1)OC(F)(F)O2 [Example 503]
+ (NAUC<40% of positive control)	CCN(C(=O)Cn1nc(-c2cc(O)cc(OC(F)(F)F)c2)c2[nH]cnc2c1=O)c1ccc2c(c1)OC(F)(F)O2 [Example 284]
++ (NAUC 70-40% of positive control)	CCN(C(=O)Cn1nc(-c2cc(F)cc(F)c2)c2oc(C3CCC3)cc2c1=O)c1ccc2c(c1)OC(F)(F)O2 [Example 235]
+++ (NAUC>70% of positive control)	CCN(C(=O)Cn1nc(-c2cc(Cl)cc(C(F)(F)F)c2)c2[nH]cnc2c1=O)c1ccc2c(c1)OC(F)(F)O2 [Example 278]
++ (NAUC 70-40% of positive control)	N#Cc1cccc(-c2nn(CC(=O)N(c3ccc4c(c3)OC(F)(F)O4)C3CC3)c(=O)c3ccoc23)c1 [Example 40]
+++ (NAUC>70% of positive control)	CCN(C(=O)Cn1nc(-c2ccc(OC(F)(F)F)c(C#N)c2)c2[nH]cnc2c1=O)c1ccc2c(c1)OC(F)(F)O2 [Example 365]
+ (NAUC<40% of positive control)	CCN(C(=O)Cn1nc(-c2ccc3c(c2)OC(F)(F)O3)c2[nH]cnc2c1=O)c1ccc2c(c1)OC(F)(F)O2 [Example 311]
+++ (NAUC>70% of positive control)	CCN(C(=O)Cn1nc(-c2cc(C)cc(C#N)c2)c2[nH]cnc2c1=O)c1ccc2c(c1)OC(F)(F)O2 [Example 246]
+++ (NAUC>70% of positive control)	CN(C(=O)Cn1nc(-c2cccc(Cl)c2)c2oc(C(F)F)cc2c1=O)c1ccc2c(c1)OC(F)(F)O2 [Example 185]
+++ (NAUC>70% of positive control)	CCN(C(=O)Cn1nc(-c2cc(Cl)cc(Cl)c2)c2oc(C3CC3)cc2c1=O)c1ccc2c(c1)OC(F)(F)O2 [Example 221]
+++ (NAUC>70% of positive control)	CCN(C(=O)Cn1nc(-c2cccc(C#N)c2)c2oc(C)cc2c1=O)c1ccc2c(c1)OC(F)(F)O2 [Example 69]
++ (NAUC 70-40% of positive control)	N#Cc1cccc(-c2nn(CC(=O)N3CCCc4c3ccc3c4OC(F)(F)O3)c(=O)c3ccoc23)c1 [Example 52]
+ (NAUC<40% of positive control)	Cn1c2ccccc2c2cc(-c3nn(CC(=O)N(c4ccc5c(c4)OC(F)(F)O5)C4CC4)c(=O)c4nc[nH]c34)ccc21 [Example 425]
+ (NAUC<40% of positive control)	CCN(C(=O)Cn1nc(-c2cc(C(C)(C)C)cc(C(C)(C)C)c2)c2[nH]cnc2c1=O)c1ccc2c(c1)OC(F)(F)O2 [Example 280]

Corr Activity (NAUC)	SMILES
+ (NAUC<40% of positive control)	CN(C(=O)Cn1nc(-c2cccc(C(C)(C)C)c2)c2occc2c1=O)c1ccc2c(c1)OC(F)(F)O2 [Example 87]
+ (NAUC<40% of positive control)	CCN(C(=O)Cn1nc(-c2ccc(CC#N)c(OC)c2)c2[nH]cnc2c1=O)c1ccc2c(c1)OC(F)(F)O2 [Example 357]
+++ (NAUC>70% of positive control)	CCN(C(=O)Cn1nc(-c2cc(C#N)cc(OC)c2)c2oc(C(F)F)cc2c1=O)c1ccc2c(c1)OC(F)(F)O2 [Example 190]
+ (NAUC<40% of positive control)	O=C(Cn1nc(-c2ccc3c(c2)ncn3-c2ccccc2)c2[nH]cnc2c1=O)N(c1ccc2c(c1)OC(F)(F)O2)C1CC1 [Example 433]
++ (NAUC 70-40% of positive control)	O=C(Cn1nc(-c2cc(F)cc(OCC(F)(F)F)c2)c2[nH]cnc2c1=O)N(c1ccc2c(c1)OC(F)(F)O2)C1CC1 [Example 393]
++ (NAUC 70-40% of positive control)	CCN(C(=O)Cn1nc(-c2cc(F)cc(C#N)c2)c2oc(C(=O)NC(C)(C)C)cc2c1=O)c1ccc2c(c1C)OC(F)(F)O2 [Example 140]
+++ (NAUC>70% of positive control)	CCN(C(=O)Cn1nc(-c2cc(C)cc(C#N)c2)c2oc(C(=O)NC3(C(F)(F)F)CC3)cc2c1=O)c1ccc2c(c1)OC(F)(F)O2 [Example 152]
++ (NAUC 70-40% of positive control)	O=C(Cn1nc(-c2cccc(Cl)c2)c2[nH]cnc2c1=O)N(c1ccc2c(c1)OC(F)(F)O2)C1CC1 [Example 371]
++ (NAUC 70-40% of positive control)	COC(=O)c1ccc(-c2nn(CC(=O)N(C)c3ccc4c(c3)OC(F)(F)O4)c(=O)c3ccoc23)cc1C#N [Example 95]
+++ (NAUC>70% of positive control)	COc1cc(C#N)cc(-c2nn(CC(=O)N3CCCc4c3ccc3c4OC(F)(F)O3)c(=O)c3ccoc23)c1 [Example 105]
+++ (NAUC>70% of positive control)	CN(C)c1ccc(-c2nn(CC(=O)N(c3ccc4c(c3)OC(F)(F)O4)C3CC3)c(=O)c3nc[nH]c23)cc1C#N [Example 486]
+++ (NAUC>70% of positive control)	CN(C(=O)Cn1nc(-c2cccc(C#N)c2)c2occc2c1=O)c1ccc2c(c1F)OC(F)(F)O2 [Example 59]
++ (NAUC 70-40% of positive control)	CCN(C(=O)Cn1nc(-c2cc(C#N)cc(C(F)F)c2)c2oc(C(F)F)cc2c1=O)c1ccc2c(c1)OC(F)(F)O2 [Example 198]
+++ (NAUC>70% of positive control)	CC(O)c1cc2c(=O)n(CC(=O)N(C)c3ccc4c(c3)OC(F)(F)O4)nc(-c3cccc(Cl)c3)c2o1 (centres unmarked) [Example 183, 2-(7-(3-chlorophenyl)-2-(1-hydroxyethyl)-4-oxofuro[2,3-d]pyridazin-5(4H)-yl)-N-(2,2-difluorobenzo[d][1,3]dioxol-5-yl)-N-methylacetamide]
+ (NAUC<40% of positive control)	CN(C(=O)Cn1nc(-c2cccc(F)c2)c2cn[nH]c2c1=O)c1ccc2c(c1)OC(F)(F)O2 [Example 497]
++ (NAUC 70-40% of positive control)	N#Cc1cc(-c2nn(CC(=O)N(c3ccc4c(c3)OC(F)(F)O4)C3CC3)c(=O)c3nc[nH]c23)cc(C(F)(F)F)c1 [Example 404]
+++ (NAUC>70% of positive control)	CN(C(=O)Cn1nc(-c2cc(F)cc(F)c2)c2occc2c1=O)c1ccc2c(c1)OC(F)(F)O2 [Example 41]
+++ (NAUC>70% of positive control)	CCN(C(=O)Cn1nc(-c2cc(F)cc(C#N)c2)c2occc2c1=O)c1cc2c(cc1C)OC(F)(F)O2 [Example 167]
+++ (NAUC>70% of positive control)	CCN(C(=O)Cn1nc(-c2cccc(F)c2)c2oc(C(=O)NC(C)(C)C)cc2c1=O)c1ccc2c(c1)OC(F)(F)O2 [Example 119]
+++ (NAUC>70% of positive control)	CCN(C(=O)Cn1nc(-c2cccc(C#N)c2)c2oc(C(=O)N3CCCC34CC4)cc2c1=O)c1ccc2c(c1)OC(F)(F)O2 [Example 207]
+ (NAUC<40% of positive control)	CCN(C(=O)Cn1nc(-c2cc(C#N)cc(C(F)(F)F)c2)c2occc2c1=O)c1ccc2c(c1)OC(F)(F)O2 [Example 97]

molecular target: T1, F508del CFTR; assay: CoPo (corrector plus potentiator) equivalent current assay in primary CF airway epithelial cells, test compound added back as potentiator, no VX-770; type: cell-based; conditions: CoPo as % of positive control (VX-809 + acute VX-770)
Experimental: It was noticed that many of the test compounds had potentiator activity in addition to corrector activity. These compounds have been denoted as CoPos by FDL and others. To measure both the corrector and potentiator activity of a compound the following changes were made to the test conditions. Cells were treated as usual with the test compounds for at least 24 hours before the experiment. 30 minutes prior to the experiment the test compound is added back to the testing solution to act as a potentiator and no VX-770 (the standard CFTR potentiator) was used with the test compound. The negative control was no longer just DMSO (no corrector) but changed to VX-809 (the standard corrector) plus VX-770 treatment for at least 24 hours. 30 minutes prior to the experiment both VX-809 and VX-770 were added back to the testing solution. This treatment led to a smaller response than the positive control of correcting F508del CFTR with VX-809 alone for at least 24 hours and adding VX-770 acutely with the forskolin addition (just as in the corrector assay).
A CoPo reading of zero means that the test compound has the same forskolin stimulated response as VX-809+VX-770 treatment for 24 hours. A CoPo reading of 1.0 means the test compound has the same forskolin response as cell treated with VX-809 and stimulated with forskolin+VX-770. CoPo activity “+++” refers to an observed CoPo>70% of positive control; CoPo activity “++” refers to an observed CoPo 70-40% of positive control; CoPo activity “+” refers to an observed CoPo<40% of positive control and “O” refers to no positive response.

CoPo Activity	SMILES
+++ (CoPo>70% of positive control)	CCN(C(=O)Cn1nc(-c2cccc(C#N)c2)c2[nH]cnc2c1=O)c1ccc2c(c1)OC(F)(F)O2 [Example 24]
